Source: patent US7786152B2, “Compound” (priority 2002, dated 2010)

These molecules were tested against T1, 11 β-HSD type 2 (Rattus norvegicus, UniProt P50233) (assay: 11 β-HSD type 2 inhibition, rat kidney homogenate, conversion F to E (radiometric TLC)). Conditions: read-out: % inhibition of 11β HSD2 @ 10 μM, typical sd ± 5%, means n=2.
T1 construct: Both the kidneys and livers were homogenised on ice in PBS-sucrose buffer; tissue Harlan Olac (rats); host or cells: Wistar rat kidney homogenate supernatant
T1 sequence (P50233 1-400): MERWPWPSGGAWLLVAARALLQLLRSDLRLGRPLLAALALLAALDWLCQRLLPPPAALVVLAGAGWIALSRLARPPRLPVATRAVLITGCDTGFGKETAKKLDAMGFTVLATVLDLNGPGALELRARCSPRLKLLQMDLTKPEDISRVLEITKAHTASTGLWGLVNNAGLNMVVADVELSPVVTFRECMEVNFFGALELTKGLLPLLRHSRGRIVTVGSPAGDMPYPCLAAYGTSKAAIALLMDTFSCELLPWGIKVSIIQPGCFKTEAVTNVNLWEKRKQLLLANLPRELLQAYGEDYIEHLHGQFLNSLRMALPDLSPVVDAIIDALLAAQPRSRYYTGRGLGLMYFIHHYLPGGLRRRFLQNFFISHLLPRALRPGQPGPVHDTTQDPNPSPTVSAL
Type: biochemical
Procedure: Enzymes—Rat livers and rat kidneys were obtained from normal Wistar rats (Harlan Olac, Bicester, Oxon, UK). Both the kidneys and livers were homogenised on ice in PBS-sucrose buffer (1 g/10 ml) using an Ultra-Turrax. After the livers and kidneys were homogenised the homogenate was centrifuged for five minutes at 4000 rpm. The supernatant obtained was removed and stored in glass vials at −20° C. The amount of protein per μl of rat liver and kidney cytosol was determined using the Bradford method.
The same procedure was used for the 11 β-HSD type 2 assay, the conversion F to E, to determine the amount of rat kidney to be used and the incubation time. Except this time the substrate solution contained ^3H—F and unlabelled F and the recovery contained ^14C-E and unlabelled E and cortisone has a Rf value of 0.65 on the TLC-plate.
In these assays the influence of different inhibitors on the 11 β-HSD activity both in reductive (type 1) and oxidative (type 2) directions were assessed. In the reductive direction E is the substrate and F the product and visa versa in the case of oxidation. The method described here is for the oxidative direction.
The substrate solution contained about 50,000 cpm/ml ^3H—F in PBS-sucrose and 0.5 μM F. 1 ml of the substrate solution was added to each tube, the inhibitors were also added, at a 10 μM concentration, to each tube except to the “control” and “blank” tubes. 150 μL was added to all tubes except to the blanks, this was done to correct for the amount of ^3H—F spontaneously formed. The tubes were incubated for 60 minutes in a mechanically shaken water bath at 37° C. The amount of kidney liver homogenate and incubation time used resulted from the enzyme- and time-dependency assay. After incubation 50 μL of recovery was added to correct for the losses made in the next steps, containing 5000 cpm/50 μL of ^14C-E and 50 μg/50 μL of unlabelled E (to visualise the spot on the TLC-plate). The aqueous mixture was then extracted with 4 ml of ether (2×30 sec cycle, vortex mix). After freezing the aqueous phase, the ether (upper) layer was decanted into smaller tubes and evaporated at 45° C. until completely dry. The residue was then re-dissolved in 6 drops of ether and transferred to a TLC-plate. The TLC-plate was developed in chloroform:methanol (9:1 v/v) solvent system, the TLC-plate ran for about 90 minutes until the solvent front had moved about 18 cm. The position of the product E was visualised under UV-light and cut out from the TLC-plate and put into scintillation vials. Radioactivity was eluted over 5 minutes with 0.5 ml methanol. 0.5 ml of PBS-sucrose and 10 ml of Ecoscint were then added and vortex mixed before counting in the scintillation counter. Before counting the samples, two total activity vials were prepared. These contained 0.5 ml of the substrate solution, 50 μL of the recovery, 0.5 ml of methanol and 10 ml of Ecoscint. These two total activity vials were needed to determine the amount of ^14C-E and ^3H—F added in the beginning to make the calculations.
To look at the percentage of inhibition four different concentrations, 1, 5, 10 and 20 μM, were used. The method for both the rat liver, type 1 the reductive, and rat kidney, type 2 the oxidative, stay the same throughout the entire experiment.
In this experiment the amount of rat liver homogenate and rat kidney homogenate added to each tube and the incubation time was determined. […] After drawing the graphs the optimal amount of rat liver cytosol and rat kidney cytosol and both their incubation times were selected. One important rule when selecting both variables, to select an amount of rat liver and rat kidney and incubation time on a linear part of the graph. This is done to avoid fluctuations in enzyme activity. The amount of rat liver cytosol selected was 25 μL and 90 minutes of incubation time, the amount of rat kidney cytosol selected was 150 μL and 60 minutes of incubation time. […]

Structure (SMILES) | inhibition at 10 µM [%]
Cc1nc2cc(NS(=O)(=O)c3ccc4c(c3)CN(C(=O)C(F)(F)F)CC4)ccc2s1 [compound 581] | 32
Cc1nc2cc(NS(=O)(=O)c3cccc4ccccc34)ccc2s1 [compound 553] | 18
COc1ccc(S(=O)(=O)Nc2ccc3sc(C)nc3c2)cc1 [compound 424] | 0.7
Cc1nc2cc(NS(=O)(=O)c3c(C(C)C)cc(C(C)C)cc3C(C)C)ccc2s1 [compound 703] | 4
CCCc1ccc(S(=O)(=O)Nc2ccc3sc(C)nc3c2)cc1 [compound 421] | 0.9
Cc1nc2cc(NS(=O)(=O)c3ccccc3C#N)ccc2s1 [compound 583] | 0.4
Cc1nc2cc(NS(=O)(=O)c3c(C)cccc3Cl)ccc2s1 [compound 425] | 0
Cc1nc2cc(NS(=O)(=O)c3ccc(Oc4ccccc4)cc3)ccc2s1 [compound 585] | 1.6
Cc1nc2cc(NS(=O)(=O)c3ccc(Cl)cc3Cl)ccc2s1 [compound 412] | 3
Cc1nc2cc(NS(=O)(=O)c3ccc(C(C)(C)C)cc3)ccc2s1 [compound 709] | 13
Cc1nc2cc(NS(=O)(=O)c3cccc(Cl)c3C)ccc2s1 [compound 413] | 0.2
Cc1nc2cc(NS(=O)(=O)c3cccc4cccnc34)ccc2s1 [compound 552] | 24
COc1ccc(Cl)cc1S(=O)(=O)Nc1ccc2sc(C)nc2c1 [compound 582] | 0.7
COc1cc(C)ccc1S(=O)(=O)Nc1ccc2sc(C)nc2c1 [compound 584] | 10
CC(=O)c1ccccc1S(=O)(=O)Nc1ccc2sc(C)nc2c1 [compound 701] | 36
Cc1nc2cc(NS(=O)(=O)c3cc(Cl)ccc3Cl)ccc2s1 [compound 580] | 1.4
Cc1nc2cc(NS(=O)(=O)c3ccc(C(C)C)cc3)ccc2s1 [compound 704] | 4
Cc1nc2cc(NS(=O)(=O)c3ccc(-c4ccccc4)cc3)ccc2s1 [compound 521] | 5
Cc1nc2cc(NS(=O)(=O)c3cccc4c(N(C)C)cccc34)ccc2s1 [compound 554] | 43
Cc1nc2cc(NS(=O)(=O)c3c(Cl)cc(Cl)cc3Cl)ccc2s1 [compound 522] | 6
CCSc1nc2ccc(NS(=O)(=O)c3cccc(Cl)c3C)cc2s1 [compound 751] | 5
CCN(c1ccc2sc(C)nc2c1)S(=O)(=O)c1cccc(Cl)c1C [compound 470] | 30
Cc1nc2cc(N(C)S(=O)(=O)c3cccc(Cl)c3C)ccc2s1 [compound 469] | 29
COC(=O)c1ccccc1S(=O)(=O)Nc1ccc2sc(C)nc2c1 [compound 705] | 6
Cc1nc2cc(NS(=O)(=O)c3ccc(Br)cc3C)ccc2s1 [compound 523] | 8
Cc1nc2cc(NS(=O)(=O)c3ccc(Br)cc3)ccc2s1 [compound 519] | 8
Cc1nc2cc(NS(=O)(=O)c3c(C)c(C)c(C)c(C)c3C)ccc2s1 [compound 710] | 10
COc1c(C)c(C)c(S(=O)(=O)Nc2ccc3sc(C)nc3c2)c(C)c1C [compound 708] | 11
